According to article PMC7531004, “Discovery of gramicidin A analogues with altered activities by multidimensional screening of a one-bead-one-compound library” (Nature Communications, 2020):
Where a SMILES comes first, the peptide text is derived from it. [ ]: non-standard residue; d: D form. The star is where a group is joined. NHCH2CH2OH = OCCN*; For = O=C*

Columns and labels:
[1] = H+/Na+ transport assay of bead-derived peptides (one-point); format: biochemical; design: key: relative activity; mean of two control wells = 1.00; settings: bead-derived peptide solution, EYPC/EYPG LUVs;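 further: relative to parent gramicidin A activity set to 1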
Procedure: (§1) Each type of assay must be simplified and miniaturized to assess the activities of the library peptides in a 96-well format for the high-throughput screening.
H+/Na+ transport assay of bead-derived peptides.1,2,3 Trisodium 8-hydroxypyrene-1,3,6-trisulfonate
mini-extruder apparatus (Avanti Polar Lipids).
28.9 µmol) in CHCl3 (225 µL) and egg yolk phosphatidylglycerol (1.20 mg, 1.56 µmol) in CHCl3 (60.0 µL)
The thin film was hydrated and
1.0 mM pyranine) by sonication.
A suspension of the LUVs was immediately
used for the H+/Na+ transport assay.
The diluted solution of peptide
flat-bottom 96-well plate (655086, Greiner bio-one).
was vortexed at room temperature for 30 min.
(5/95, 3.0 µL) and the LUV suspension were mixed in each plate to determine 100% lysis. The untreated
LUV suspension was used to determine 0% lysis.
normalized against 100% lysis by Triton X-100 (Imax) and 0% lysis (I0) as following, where Ix is the
fluorescence intensity (Supplementary Equation 2).
I = 100 × (Ix – I0) / (Imax – I0) (2)
The mean value of the two control wells was set to 1.00. […]

[2] = tested on: P388 mouse leukemia cells; settings: 92 h
Excerpt: Each type of assay must be simplified and miniaturized to assess the activities of the library peptides in a 96-well format for the high-throughput screening. […]
Mammalian cytotoxicity assay of bead-derived peptides . P388 cells were obtained from Institute of
Development Aging and Cancer (Tohoku University). The cells were maintained with growth medium
[RPMI1640 with phenol red ( Fujifilm Wako Pure Chemical) supplemented with 10% heat -inactivated fetal
bovine serum, pe nicillin G (100 units/mL), and streptomycin (100 µg/mL)] under atmosphere of 5% CO 2 at
The collected cells were resuspended into
the growth medium at 2 × 10^4 cells/mL. The stock solutions of the peptide library were 250-fold diluted
with the growth medium. Aliquots of the medium (100 µL) containing peptides and the latter medium
containing P388 cells (100 µL) were mixed in a 96-well cell culture plate (TR5003, TrueLine). The final
concentration of P388 cells was 1 × 10^4 cells/mL. After incubation under atmosphere of 5% CO2 at 37 °C
for 92 h, the numbers of viable cells were determined by
2-(4-iodophenyl)-3-(4-nitrophenyl)-5-(2,4-disulfophenyl)-2H-tetrazolium, monosodium salt (WST-1) assay.
A solution of 1-methoxy-5-methylphenazinium methyl sulfate (1-methoxy PMS) and WST-1 in the growth
medium (1-methoxy PMS 0.70 mg/mL in Milli-Q/WST-1 3.6 mg/mL in pH 7.4 HEPES buffer = 1/9) was
added to each well of the plate (10.0 µL/well). The plate was incubated for 4 h under atmosphere of 5% CO2
at 37 °C. The absorbance of each well at 415 nm was measured using a Benchmark microplate reader
(Bio-Rad). The cytotoxicities were evaluated as cell viability (%). […]

[3] = tested on: Streptococcus pyogenes SSI-9; experiment: Antibacterial activity assay of bead-derived peptides (three concentrations); format: cell-based; design: key: +++: inhibition by the 640-fold diluted peptide solution; ++: inhibition by the 160-fold diluted solution; +: inhibition by the 40-fold diluted solution; -: no inhibition; settings: S. pyogenes, bead-derived peptide solution, three concentrations
Procedure: as §1
Next, the peptides in groups A and B were subjected to the antibacterial assay and structural determination. Three peptide concentrations were applied to evaluate the growth inhibition of S. pyogenes and determine the antibacterial activity. […] Finally, the structures of the peptides were determined. […]
Antibacterial activity assay of bead-derived peptides. The stock solution of the peptide library was 4- and […]
16-fold diluted with DMSO. The non-diluted stock solution, 4-fold diluted solution, and 16-fold diluted […]
solution were transferred to the 96-well round-bottom plate (3367, Corning, 1.0 µL/well). To the solution of […]
peptide in each well was added a suspension of Streptococcus pyogenes SSI-9 strain in cation adjusted […]
Mueller Hinton Broth [40.0 µL, 2 × 10^5 colony forming units (CFU), 21 g/L Mueller Hinton Broth (Difco), 50 […]
mg/L Ca2+ (adjusted with CaCl2•2H2O), and 25 mg/L Mg2+ (adjusted with MgCl2•6H2O)] supplemented with […]
5% laked horse blood (Nippon Biotest Laboratories). The plate was incubated at 37 °C for 18 h, and the precipitation of the grown cells was examined. […]

| Structure (SMILES) | H+/Na+ transport activity normalized against the value of 1 (1.00) [1] | cell viability/% [2] [%] | antibacterial activity [3] |
| --- | --- | --- | --- |
| CC(C)C[C@@H](NC(=O)[C@H](Cc1c[nH]c2ccccc12)NC(=O)[C@@H](CC(C)C)NC(=O)[C@@H](NC(=O)[C@H](NC(=O)[C@H](C)NC(=O)[C@H](NC(=O)[C@H](C)NC(=O)CNC(=O)[C@@H](NC=O)C(C)C)[C@H](C)O)C(C)C)C(C)C)C(=O)N[C@@H](Cc1c[nH]c2ccccc12)C(=O)N[C@H](CC(C)C)C(=O)N[C@@H](Cc1c[nH]c2ccccc12)C(=O)N[C@@H](C(=O)N[C@@H](Cc1c[nH]c2ccccc12)C(=O)NCCO)C(C)C [compound 94] (For-VGA[dT]A[dV]V[dL]W[dL]W[dL]W[dV]W-NHCH2CH2OH) | 1.16 | 100.0 | - |
| CC(C)C[C@@H](NC(=O)[C@H](Cc1c[nH]c2ccccc12)NC(=O)[C@H](NC(=O)[C@H](Cc1c[nH]c2ccccc12)NC(=O)[C@H](NC(=O)[C@H](Cc1c[nH]c2ccccc12)NC(=O)[C@@H](CC(C)C)NC(=O)[C@@H](NC(=O)[C@H](NC(=O)[C@H](C)NC(=O)[C@H](NC(=O)[C@H](C)NC(=O)CNC(=O)[C@@H](NC=O)C(C)C)C(C)C)C(C)C)C(C)C)C(C)C)C(C)C)C(=O)N[C@@H](Cc1c[nH]c2ccccc12)C(=O)NCCO [compound 97] (For-VGA[dV]A[dV]V[dL]W[dV]W[dV]W[dL]W-NHCH2CH2OH) | 1.24 | 59.7 | + |
| CNC(=O)C[C@@H](NC(=O)[C@@H](NC(=O)[C@@H](CC(C)C)NC(=O)[C@H](C)NC(=O)[C@@H](CC(C)C)NC(=O)[C@H](C)NC(=O)CNC(=O)[C@@H](NC=O)C(C)C)C(C)C)C(=O)N[C@@H](Cc1c[nH]c2ccccc12)C(=O)N[C@H](CC(C)C)C(=O)N[C@@H](Cc1c[nH]c2ccccc12)C(=O)N[C@@H](C(=O)N[C@@H](Cc1c[nH]c2ccccc12)C(=O)N[C@H](CC(C)C)C(=O)N[C@@H](Cc1c[nH]c2ccccc12)C(=O)NCCO)C(C)C [compound 173] (For-VGA[dL]A[dL]V[dD](NHMe)W[dL]W[dV]W[dL]W-NHCH2CH2OH) | 1.07 | 100.0 | - |
| CC(C)C[C@@H](NC(=O)[C@H](Cc1c[nH]c2ccccc12)NC(=O)[C@H](NC(=O)[C@H](Cc1c[nH]c2ccccc12)NC(=O)[C@@H](CC(C)C)NC(=O)[C@@H](NC(=O)[C@H](NC(=O)[C@H](C)NC(=O)[C@H](NC(=O)[C@H](C)NC(=O)CNC(=O)[C@@H](NC=O)C(C)C)[C@H](C)O)C(C)C)C(C)C)C(C)C)C(=O)N[C@@H](Cc1c[nH]c2ccccc12)C(=O)N[C@@H](C(=O)N[C@@H](Cc1c[nH]c2ccccc12)C(=O)NCCO)C(C)C [compound 182] (For-VGA[dT]A[dV]V[dL]W[dV]W[dL]W[dV]W-NHCH2CH2OH) | 1.16 | 100.0 | - |
| CNC(=O)C[C@@H](NC(=O)[C@@H](NC(=O)[C@H](NC(=O)[C@H](C)NC(=O)[C@H](NC(=O)[C@H](C)NC(=O)CNC(=O)[C@@H](NC=O)C(C)C)C(C)C)C(C)C)C(C)C)C(=O)N[C@@H](Cc1c[nH]c2ccccc12)C(=O)N[C@H](CC(C)C)C(=O)N[C@@H](Cc1c[nH]c2ccccc12)C(=O)N[C@H](CC(C)C)C(=O)N[C@@H](Cc1c[nH]c2ccccc12)C(=O)N[C@@H](C(=O)N[C@@H](Cc1c[nH]c2ccccc12)C(=O)NCCO)C(C)C [compound 231] (For-VGA[dV]A[dV]V[dD](NHMe)W[dL]W[dL]W[dV]W-NHCH2CH2OH) | 1.14 | 100.0 | - |
| CC(C)C[C@@H](NC(=O)[C@H](C)NC(=O)[C@H](NC(=O)[C@H](C)NC(=O)CNC(=O)[C@@H](NC=O)C(C)C)[C@H](C)O)C(=O)N[C@H](C(=O)N[C@H](CC(C)C)C(=O)N[C@@H](Cc1c[nH]c2ccccc12)C(=O)N[C@@H](C(=O)N[C@@H](Cc1c[nH]c2ccccc12)C(=O)N[C@H](CC(C)C)C(=O)N[C@@H](Cc1c[nH]c2ccccc12)C(=O)N[C@@H](C(=O)N[C@@H](Cc1c[nH]c2ccccc12)C(=O)NCCO)C(C)C)[C@H](C)O)C(C)C [compound 367] (For-VGA[dT]A[dL]V[dL]W[dT]W[dL]W[dV]W-NHCH2CH2OH) | 1.24 | 100.0 | - |
| CC(C)C[C@@H](NC(=O)[C@H](Cc1c[nH]c2ccccc12)NC(=O)[C@H](NC(=O)[C@H](Cc1c[nH]c2ccccc12)NC(=O)[C@H](NC(=O)[C@H](Cc1c[nH]c2ccccc12)NC(=O)[C@H](NC(=O)[C@@H](NC(=O)[C@H](NC(=O)[C@H](C)NC(=O)[C@H](NC(=O)[C@H](C)NC(=O)CNC(=O)[C@@H](NC=O)C(C)C)C(C)C)[C@H](C)O)C(C)C)C(C)C)C(C)C)C(C)C)C(=O)N[C@@H](Cc1c[nH]c2ccccc12)C(=O)NCCO [compound 379] (For-VGA[dV]A[dT]V[dV]W[dV]W[dV]W[dL]W-NHCH2CH2OH) | 1.19 | 100.0 | - |
| CC(C)C[C@@H](NC(=O)[C@H](Cc1c[nH]c2ccccc12)NC(=O)[C@H](NC(=O)[C@H](Cc1c[nH]c2ccccc12)NC(=O)[C@H](NC(=O)[C@H](Cc1c[nH]c2ccccc12)NC(=O)[C@@H](CC(C)C)NC(=O)[C@@H](NC(=O)[C@H](NC(=O)[C@H](C)NC(=O)[C@H](NC(=O)[C@H](C)NC(=O)CNC(=O)[C@@H](NC=O)C(C)C)C(C)C)C(C)C)C(C)C)C(C)C)C(C)C)C(=O)N[C@@H](Cc1c[nH]c2ccccc12)C(=O)NCCO [compound 448] (For-VGA[dV]A[dV]V[dL]W[dV]W[dV]W[dL]W-NHCH2CH2OH) | 1.07 | 34.1 | + |
| CC(C)C[C@@H](NC(=O)[C@H](Cc1c[nH]c2ccccc12)NC(=O)[C@H](NC(=O)[C@H](Cc1c[nH]c2ccccc12)NC(=O)[C@@H](CC(C)C)NC(=O)[C@H](Cc1c[nH]c2ccccc12)NC(=O)[C@@H](CC(C)C)NC(=O)[C@@H](NC(=O)[C@H](NC(=O)[C@H](C)NC(=O)[C@H](NC(=O)[C@H](C)NC(=O)CNC(=O)[C@@H](NC=O)C(C)C)C(C)C)C(C)C)C(C)C)[C@H](C)O)C(=O)N[C@@H](Cc1c[nH]c2ccccc12)C(=O)NCCO [compound 457] (For-VGA[dV]A[dV]V[dL]W[dL]W[dT]W[dL]W-NHCH2CH2OH) | 1.08 | 95.8 | + |
| CC(C)C[C@@H](NC(=O)[C@H](C)NC(=O)[C@H](NC(=O)[C@H](C)NC(=O)CNC(=O)[C@@H](NC=O)C(C)C)[C@H](C)O)C(=O)N[C@H](C(=O)N[C@H](CC(C)C)C(=O)N[C@@H](Cc1c[nH]c2ccccc12)C(=O)N[C@H](CC(C)C)C(=O)N[C@@H](Cc1c[nH]c2ccccc12)C(=O)N[C@@H](C(=O)N[C@@H](Cc1c[nH]c2ccccc12)C(=O)N[C@@H](C(=O)N[C@@H](Cc1c[nH]c2ccccc12)C(=O)NCCO)C(C)C)C(C)C)C(C)C [compound 569] (For-VGA[dT]A[dL]V[dL]W[dL]W[dV]W[dV]W-NHCH2CH2OH) | 1.01 | 100.0 | - |
